Source: PMC5114273, “Activity of Scorpion Venom-Derived Antifungal Peptides against Planktonic Cells of Candida spp. and Cryptococcus neoformans and Candida albicans Biofilms” (Frontiers in Microbiology, 2016)
Ends that are not written are not given here.

Legend:
[1] = test system: Candida spp. and C. neoformans; experiment: Broth microdilution antifungal assay, summary over the strains tested; assay type: cell-based, Candida spp.; Cryptococcus neoformans; settings: data not shown
Excerpt: (§1) Candida albicans strain SC 5314 (ATCC MYA-2876) was provided by Dr. Joshua Nosanchuk (New York, NY, USA). C. glabrata ATCC 90030, C. parapsilosis ATCC 22019, and C. tropicalis ATCC 750 were provided by Dr. Érika Kioshima (Universidade Estadual de Maringá, Paraná, Brazil). C. neoformans var. grubii strain H99 (serotype A, ATCC 208821) was provided by Dr. John Perfect (Durham, NC, USA). C. neoformans var. neoformans B3501 (serotype D, ATCC 34873) was obtained from ATCC (Manassas, VA, USA). All strains were stored as frozen stocks in 35% glycerol at -80°C. Before each experiment, all Candida spp. strains were grown in Sabouraud’s dextrose broth overnight at 30°C with agitation. C. neoformans strains were grown in the same conditions for 24 h. Fungal cells were collected by centrifugation, washed three times in phosphate buffered saline (PBS) (137 mM NaCl, 2.7 mM KCl, 10 mM Na2HPO4, 2 mM KH2PO4) and inoculated in Roswell Park Memorial Institute (RPMI) 1640 medium supplemented with L-glutamine and buffered to pH 7.0 with 165 mM 3-(N-morpholino)propanesulfonic acid for experiments described below.
In vitro antifungal assays were performed according to broth microdilution susceptibility test from Clinical and Laboratory Standards Institute (CLSI) M27-A3 guidelines with some modifications. Briefly, twofold serial dilutions of each peptide were prepared in 96-well polystyrene microplates to a final volume of 50 μL. Amphotericin B (Amp B; A2942, Sigma-Aldrich), a known antifungal drug, was used as a positive control. Final concentrations of each peptide and Amp B ranged from 100 to 0.78 μM and 16 to 0.03 μg/mL, respectively, except in tests with C. glabrata and C. parapsilosis, where the final peptide concentration ranged from 400 to 0.78 μM. In each plate, wells were included without peptide as a growth control. Then, 50 μL of the adjusted inoculum in RPMI-1640 medium were added to each well to a final concentration of 2 × 10^3 cells/mL for Candida spp. and 10^4 cells/mL for C. neoformans strains. The plates were incubated at 37°C for 24 and 48 h, respectively. […]

human erythrocytes = experiment: Hemolytic assay; assay type: cell-based; settings: 1 h, 540 nm; for Hemolysis: all the tested concentrations (100 to 0.78 μM), 3% hematocrit in PBS
Excerpt: Considering the potential use of the AMPs as treatment against pathogens, even if in a more distant future, some of their properties against host cells should be addressed. To achieve this goal, we have performed hemolytic assay to evaluate if these molecules are toxic or harmless to red blood cells. Further, we have also tested the possible cytotoxicity of those peptides against other mammalian cell types by following the cell viability score after treatment. The solution of human red blood cells was treated with the peptide at levels ranging from 100 to 0.78 μM. Whole human blood was collected from healthy donors in vials with ethylenediaminetetraacetic acid (EDTA). The red blood cells were separated by centrifugation and resuspended in PBS. After the centrifugation (800 g, 5 min at 4 ± 1°C) the supernatant was removed and the red blood cells pellet was resuspended to a 3% hematocrit in sterile water (considered as 100% hemolysis) and PBS (taken as blank for spectrophotometric measurement). Fifty microliters of the 3% cell suspension in PBS were added to different final concentrations of the peptide (v/v) in a 96-well polystyrene microplate and then incubated for 1 h ([Nahar et al., 2008]; [Zhao et al., 2009]; [Qi et al., 2010]). The microplates were centrifuged and the supernatant was collected and analyzed at 540 nm using a microplate spectrophotometer. The percentage of hemolysis was calculated relative to the positive control as performed by [Nahar et al. (2008)]. The procedures were approved by the Ethics Committee on Human Research of Faculty of Medicine/University of Brasília (UnB) and conform to FDA standards (UnBDoc no. 66704/2016).

[2] = Circular dichroism, α-helix content; assay type: physicochemical; settings: CD, 0.2 mg/mL, 37°C, from [θ]208
Description: Circular dichroism (CD) assays were carried out using Jasco J-815 spectropolarimeter equipped with a Peltier-type temperature controller. Peptides (0.2 mg/mL) were analyzed in water at 37°C in absence or the presence of trifluoroethanol (TFE) (10, 30, and 50%). The mean spectrum of three consecutive experiments was corrected for the baseline buffer contribution. The observed ellipticities were converted into molar ellipticity ([θ]) based on molecular mass per residue of 115 Da ([Adler et al., 1973]). The α helix secondary structure content (fθ) was estimated considering the values of [θ]208 nm as a function of TFE concentration using the following equation ([Greenfield and Fasman, 1969]): […]

C. albicans (SC5314) = experiment: microbe, parasite or virus in culture; assay type: cell-based, Candida albicans; settings: RPMI-1640 pH 7.0, 2 × 10^3 cells/mL, 37°C, 24 h; complete inhibition of visible growth; at least three experiments; read-out: Minimum inhibitory concentration, C. albicans (SC5314)
Excerpt: as §1
(§2) In vitro antifungal assays were performed according to broth microdilution susceptibility test from Clinical and Laboratory Standards Institute (CLSI) M27-A3 guidelines with some modifications. Briefly, twofold serial dilutions of each peptide were prepared in 96-well polystyrene microplates to a final volume of 50 μL. Amphotericin B (Amp B; A2942, Sigma-Aldrich), a known antifungal drug, was used as a positive control. Final concentrations of each peptide and Amp B ranged from 100 to 0.78 μM and 16 to 0.03 μg/mL, respectively, except in tests with C. glabrata and C. parapsilosis, where the final peptide concentration ranged from 400 to 0.78 μM. In each plate, wells were included without peptide as a growth control. Then, 50 μL of the adjusted inoculum in RPMI-1640 medium were added to each well to a final concentration of 2 × 10^3 cells/mL for Candida spp. and 10^4 cells/mL for C. neoformans strains. The plates were incubated at 37°C for 24 and 48 h, respectively. The strains of C. neoformans were also incubated with shaking (200 rpm). […] The experiments were performed at least three times on separate dates.

C. tropicalis (ATCC 750) = experiment: microbe, parasite or virus in culture; assay type: cell-based, Candida tropicalis; settings: RPMI-1640 pH 7.0, 2 × 10^3 cells/mL, 37°C, 24 h; complete inhibition of visible growth; at least three experiments; read-out: Minimum inhibitory concentration, C. tropicalis (ATCC 750)
Excerpt: as §1, §2

[3] = test system: C. parapsilosis (ATCC 22019); experiment: microbe, parasite or virus in culture; assay type: cell-based, Candida parapsilosis; settings: RPMI-1640 pH 7.0, 2 × 10^3 cells/mL, 37°C, 24 h; peptides 400 to 0.78 μM; at least three experiments; read-out: Minimum inhibitory concentration, C. parapsilosis (ATCC 22019)
Excerpt: as §1, §2

C. glabrata (ATCC 90030) = experiment: microbe, parasite or virus in culture; assay type: cell-based, Candida glabrata; settings: RPMI-1640 pH 7.0, 2 × 10^3 cells/mL, 37°C, 24 h; peptides 400 to 0.78 μM; at least three experiments; read-out: Minimum inhibitory concentration, C. glabrata (ATCC 90030)
Excerpt: as §1, §2

[4] = test system: C. neoformans (H99 serotype A); experiment: microbe, parasite or virus in culture; assay type: cell-based, Cryptococcus neoformans var. grubii; settings: RPMI-1640 pH 7.0, 10^4 cells/mL, 37°C, 48 h, shaking 200 rpm; at least three experiments; read-out: Minimum inhibitory concentration, C. neoformans (H99 serotype A)
Excerpt: as §1, §2

[5] = test system: C. neoformans (B3501 serotype D); experiment: microbe, parasite or virus in culture; assay type: cell-based, Cryptococcus neoformans var. neoformans; settings: RPMI-1640 pH 7.0, 10^4 cells/mL, 37°C, 48 h, shaking 200 rpm; at least three experiments; read-out: Minimum inhibitory concentration, C. neoformans (B3501 serotype D)
Excerpt: as §1, §2

[6] = test system: peritoneal macrophages of BALB/c mice; experiment: Cytotoxic test using peritoneal macrophages (LDH release); assay type: cell-based, mouse; settings: 24 h; for Viability of peritoneal macrophages: whole range of peptide concentrations
Description: BALB/c mice were injected with thioglycolate 72 h before peritoneal macrophages were harvested. They were diluted to a concentration of 10^6 cell/mL in RPMI-1640 supplemented with penicillin/streptomycin (100 U/mL, 100 µg/mL), 2 mM L-glutamine, 2 mM non-essential amino acids, 1 mM sodium pyruvate (all reagents from Sigma-Aldrich, St Louis, MO, USA) and 10% fetal bovine serum (FBS), and incubated in 96-well polystyrene microplates at 37°C, 5% CO2 for 24 h. The peptides were added then and cells were further incubated for 24 h as described previously ([Cruz et al., 2005]). Three independent experiments were performed. Cytotoxic activity was evaluated by the release of cytoplasmic enzyme lactate dehydrogenase due to cell lysis using the Cytotox kit (Promega). Briefly, at the end of the incubation period, supernatants were collected, the adhered cells were washed and the toxicity was determined according to the manufacturer’s protocol. The procedures were approved by the Ethics Committee on Animal Research of Institute of Biology (UnBDOC 52657/2011)/University of Brasília (UnB).

Row | Substance | MIC (C. albicans (SC5314)) [µM] | MIC (C. tropicalis (ATCC 750)) [µM] | MIC [3] [µM] | MIC (C. glabrata (ATCC 90030)) [µM] | MIC [4] [µM] | MIC [5] [µM] | further results
1 | EEDDLLGFSEEDLKAIKEHRAKNA-NH2 [ToAcP, anionic peptide from T. obscurus, LT576031] |  |  |  |  |  |  | Antifungal activity in the tested concentrations ([1]; Candida spp. and C. neoformans): did not present antifungal activity
2 | FFGTLFKLLSKLIPGLMKLFSKLLER-NH2 [ToAP2S1, modified analog of ToAP2, C-terminally amidated] |  |  |  |  |  |  | Antifungal activity in the tested concentrations ([1]; C. albicans, C. glabrata and C. neoformans H99): did not show antifungal activity; Hemolysis curve compared with ToAP2 (human erythrocytes; with concentrations up to 25 μM): higher hemolysis curve; α-Helix content (%), TFE 10% ([2]; TFE 10%): 22.9%; α-Helix content (%), TFE 30% ([2]; TFE 30%): 24.3%; α-Helix content (%), TFE 50% ([2]; TFE 50%): 24.7%; α-Helix content (%), water ([2]; water, mean spectrum of three experiments): 16.5%
3 | FFSLIPSLIGGLVSAIK-NH2 [ToAP4, NDBP subfamily 4 peptide from T. obscurus, amidated] |  |  |  |  |  |  | Antifungal activity in the tested concentrations ([1]; Candida spp. and C. neoformans): has not shown antifungal activity
4 | FIGMIPGLIGGLISAFK-NH2 [ToAP1] | 50 | 12.5 | 200 | >400 | 25 | 12.5 | Hemolysis (human erythrocytes): lower than 50%; Viability of peritoneal macrophages [6]: higher viability
5 | FIGMIPGLIGGLISAIK-NH2 [ToAP3] | 25 | 12.5 | 100 | >400 | 100 | 25 | 
6 | FLGMIPGLIGGLISAFK-NH2 [NDBP-4.23] | 50 | 6.25 | 100 | >400 | 25 | 12.5 | Hemolysis (human erythrocytes): lower than 50%; Concentrations showing low cytotoxicity ([6]; threshold of acceptable cytotoxicity 50% viability, three independent experiments): < 25 µM
7 | GILGKIWEGVKSLI [NDBP-5.8] | 100 | 25 | 200 | >400 | 100 | 50 | 
8 | ILSAIWSGIKSLF-NH2 [NDBP-5.7] | 25 | 25 | >400 | >400 | 25 | 12.5 | Hemolysis percent (human erythrocytes; in concentrations up to 50 μM): higher than 50%; Viability of peritoneal macrophages [6]: higher viability
